Results published in patent US20120088759A1, “THIAZOLIDIN-4-ONE AND [1,3]-THIAZINAN-4-ONE COMPOUNDS AS OREXIN RECEPTOR ANTAGONISTS” (priority 2009, published 2012).

Assays:
rat [1] = conditions: cited from earlier work
rat [2] = conditions: rat model; cited from earlier work
rat [3] = conditions: cited from earlier work; remark: listed apart in the source
human orexin-2 receptor = target: T1, human orexin-2 receptor (Homo sapiens, UniProt O43614); assay: FLIPR intracellular calcium assay, orexin receptor antagonistic activity (OX2); type: cell-based; conditions: CHO cells expressing human orexin-2 receptor; 3 nM orexin-A; normalized to on-plate reference; *n = geometric mean from n values
T1 construct: expressed in transfected cells; host or cells: CHO (Chinese hamster ovary) cells, kept under G418
T1 sequence (O43614 1-444): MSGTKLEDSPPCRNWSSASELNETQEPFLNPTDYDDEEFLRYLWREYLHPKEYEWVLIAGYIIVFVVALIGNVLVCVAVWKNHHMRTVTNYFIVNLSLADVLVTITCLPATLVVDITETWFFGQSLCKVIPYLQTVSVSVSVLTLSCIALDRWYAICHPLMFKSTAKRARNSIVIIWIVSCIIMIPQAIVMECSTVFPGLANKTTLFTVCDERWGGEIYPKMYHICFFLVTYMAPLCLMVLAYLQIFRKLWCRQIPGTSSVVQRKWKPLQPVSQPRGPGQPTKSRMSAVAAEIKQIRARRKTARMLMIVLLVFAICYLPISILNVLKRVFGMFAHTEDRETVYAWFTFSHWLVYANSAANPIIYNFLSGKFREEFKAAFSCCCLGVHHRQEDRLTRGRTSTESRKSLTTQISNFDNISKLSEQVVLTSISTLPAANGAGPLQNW
Method: (§1) The orexin receptor antagonistic activity of the compounds of formula (I) is determined in accordance with the following experimental method.
(§2) Chinese hamster ovary (CHO) cells expressing the human orexin-1 receptor and the human orexin-2 receptor, respectively, are grown in culture medium (Ham F-12 with L-Glutamine) containing 300 μg/ml G418, 100 U/ml penicillin, 100 μg/ml streptomycin and 10% heat inactivated fetal calf serum (FCS). The cells are seeded at 20′000 cells/well into 384-well black clear bottom sterile plates (Greiner). The seeded plates are incubated overnight at 37° C. in 5% CO2.
(§3) Human orexin-A as an agonist is prepared as 1 mM stock solution in MeOH:water (1:1), diluted in HBSS containing 0.1% bovine serum albumin (BSA), NaHCO3: 0.375 g/l and 20 mM HEPES for use in the assay at a final concentration of 3 nM.
(§4) Antagonists are prepared as 10 mM stock solution in DMSO, then diluted in 384-well plates using DMSO followed by a transfer of the dilutions into in HBSS containing 0.1% bovine serum albumin (BSA), NaHCO3: 0.375 g/l and 20 mM HEPES. On the day of the assay, 50 μl of staining buffer (HBSS containing 1% FCS, 20 mM HEPES, NaHCO3: 0.375 g/l, 5 mM probenecid (Sigma) and 3 μM of the fluorescent calcium indicator fluo-4 AM (1 mM stock solution in DMSO, containing 10% pluronic) is added to each well. The 384-well cell-plates are incubated for 50 min at 37° C. in 5% CO2 followed by equilibration at rt for 30-120 min before measurement.
(§5) Within the Fluorescent Imaging Plate Reader (FLIPR Tetra, Molecular Devices), antagonists are added to the plate in a volume of 10 μl/well, incubated for 10 min and finally 10 μl/well of agonist is added. Fluorescence is measured for each well at 1 second intervals, and the height of each fluorescence peak is compared to the height of the fluorescence peak induced by 3 nM orexin-A with vehicle in place of antagonist. For each antagonist, the IC50 value (the concentration of compound needed to inhibit 50% of the agonistic response) is determined and normalized using the obtained IC50 value of a on-plate reference compound. Optimized conditions were achieved by adjustment of pipetting speed and cell splitting regime. The calculated IC50 values of the compounds may fluctuate depending on the daily cellular assay performance. Fluctuations of this kind are known to those skilled in the art.

human orexin-1 receptor = target: T2, human orexin-1 receptor (Homo sapiens, UniProt O43613); assay: FLIPR intracellular calcium assay, orexin receptor antagonistic activity (OX1); type: cell-based; conditions: CHO cells expressing human orexin-1 receptor; 3 nM orexin-A; normalized to on-plate reference; *n = geometric mean from n values
T2 construct: expressed in transfected cells; host or cells: CHO (Chinese hamster ovary) cells, kept under G418
T2 sequence (O43613 1-425): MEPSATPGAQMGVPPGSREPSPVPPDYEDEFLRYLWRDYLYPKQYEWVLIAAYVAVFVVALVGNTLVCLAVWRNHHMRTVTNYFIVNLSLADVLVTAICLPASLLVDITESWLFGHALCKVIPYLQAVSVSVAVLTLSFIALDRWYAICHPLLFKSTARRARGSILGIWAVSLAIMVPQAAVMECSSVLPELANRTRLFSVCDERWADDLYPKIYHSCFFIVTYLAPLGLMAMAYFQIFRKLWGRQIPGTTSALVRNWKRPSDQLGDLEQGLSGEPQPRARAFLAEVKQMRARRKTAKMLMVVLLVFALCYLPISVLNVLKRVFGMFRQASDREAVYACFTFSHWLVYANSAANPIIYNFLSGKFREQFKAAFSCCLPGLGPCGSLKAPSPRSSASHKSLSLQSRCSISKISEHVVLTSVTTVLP
Method: as §1, §2, §3, §4, §5

Compound | IC50 (human orexin-2 receptor) | IC50 (human orexin-1 receptor) | further results
CNC(=O)[C@@H](c1ccccc1)N1CCc2cc(OC)c(OC)cc2[C@@H]1CCc1ccc(C(F)(F)F)cc1 [(2R)-2-{(1S)-6,7-dimethoxy-1-[2-(4-trifluoromethyl-phenyl)-ethyl]-3,4-dihydro-1H-isoquinolin-2-yl}-N-methyl-2-phenylacetamide] | – | – | alertness, characterized by active wake and locomotion (rat [1]): decrease alertness; time spent in both REM and NREM sleep (rat [1]): dose-dependently increase; memory function (rat [2]): enhance memory function; activity in a rat model of post-traumatic stress disorder (rat [3]): active
COc1cc(C2SC(C)C(=O)N2Cc2nc3ccccc3[nH]2)ccc1OCc1ccccc1 (stereo not drawn) [Example 265, 3-(1H-Benzoimidazol-2-ylmethyl)-2-(4-benzyloxy-3-methoxy-phenyl)-5-methyl-thiazolidin-4-one] | 533 nM | 2630 nM | –
CCOc1ccccc1C1SCCC(=O)N1Cc1c(OC)cccc1OC (stereo not drawn) [Example 43, 3-(2,6-Dimethoxy-benzyl)-2-(2-ethoxy-phenyl)-[1,3]thiazinan-4-one] | 70 nM | 793 nM | –
COc1cccc(OC)c1C1SCC(=O)N1Cc1ccc(Oc2ccc(C)cn2)cc1 (stereo not drawn) [Example 281, 2-(2,6-Dimethoxy-phenyl)-3-[4-(5-methyl-pyridin-2-yloxy)-benzyl]-thiazolidin-4-one] | 61 nM | 781 nM | –
COc1cccc(OC)c1C1SCC(=O)N1Cc1ccc(OC(C)(C)C)cc1 (stereo not drawn) [Example 3, 3-(4-tert-Butoxy-benzyl)-2-(2,6-dimethoxy-phenyl)-thiazolidin-4-one] | 120 nM | 1420 nM | –
CCOc1ccc(CN2C(=O)CSC2c2c(OC)ccc3cccnc23)cc1 (stereo not drawn) [Example 21, 3-(4-Ethoxy-benzyl)-2-(7-methoxy-quinolin-8-yl)-thiazolidin-4-one] | 60 nM | 1450 nM | –
2-[2-(2-Hydroxy-ethoxy)-6-methoxy-phenyl]-3-(4-isopropoxy-benzyl)-thiazolidin-4-on [Example 269] | 25 nM | 2060 nM | –
CCOc1ccccc1C1SCCC(=O)N1Cc1ccccc1OC(F)F (stereo not drawn) [Example 40, 3-(2-Difluoromethoxy-benzyl)-2-(2-ethoxy-phenyl)-[1,3]thiazinan-4-one] | 68 nM | 1310 nM | –
COc1ccc2nc(C)oc2c1C1SCC(=O)N1Cc1ccc(OC(F)(F)F)cc1 (stereo not drawn) [Example 23, 2-(6-Methoxy-2-methyl-benzooxazol-7-yl)-3-(4-trifluoromethoxy-benzyl)-thiazolidin-4-one] | 28 nM | 204 nM | –
COc1ccc(Oc2ccc(CN3C(=O)CSC3c3c(OC)cccc3OC)cc2)nc1 (stereo not drawn) [Example 286, 2-(2,6-Dimethoxy-phenyl)-3-[4-(5-methoxy-pyridin-2-yloxy)-benzyl]-thiazolidin-4-one] | 52 nM | 553 nM | –
COc1cccc(OC)c1C1SC(C)(C)C(=O)N1Cc1ccc2ccccc2c1 (stereo not drawn) [Example 176, 2-(2,6-Dimethoxy-phenyl)-5,5-dimethyl-3-naphthalen-2-ylmethyl-thiazolidin-4-one] | 295 nM | 20 nM | –
COc1ccc(CN2C(=O)CSC2c2c(OC)cccc2OC)cc1 (stereo not drawn) [Example 1, 2-(2,6-Dimethoxy-phenyl)-3-(4-methoxy-benzyl)-thiazolidin-4-one] | 104 nM | 309 nM | –
CCOc1ccc(CN2C(=O)CSC2c2c(OC)cncc2OC)cc1 (stereo not drawn) [Example 29, 2-(3,5-Dimethoxy-pyridin-4-yl)-3-(4-ethoxy-benzyl)-thiazolidin-4-one] | 36 nM | 1050 nM | –
COc1cccc(OC)c1C1SCC(=O)N1Cc1cccc(OC(F)(F)F)c1 (stereo not drawn) [Example 119, 2-(2,6-Dimethoxy-phenyl)-3-(3-trifluoromethoxy-benzyl)-thiazolidin-4-one] | 61 nM | 355 nM | –

Now from value to compound, other results behind:

IC50 (human orexin-2 receptor) | IC50 (human orexin-1 receptor) | Compound | further results
24 nM | 140 nM | CCOc1ccc(CN2C(=O)CSC2c2c(OC)cccc2OC)cc1 (stereo not drawn) [Example 6, 2-(2,6-Dimethoxy-phenyl)-3-(4-ethoxy-benzyl)-thiazolidin-4-one] | –
6 nM | 15 nM | COc1ccc2cc(CN3C(=O)CSC3c3c(OC)cccc3OC)ccc2c1 (stereo not drawn) [Example 32, 2-(2,6-Dimethoxy-phenyl)-3-(6-methoxy-naphthalen-2-ylmethyl)-thiazolidin-4-one] | –
8 nM | 105 nM | COc1cc(F)cc(OC)c1C1SCC(=O)N1Cc1ccc(OC(F)(F)F)cc1 (stereo not drawn) [Example 33, 2-(4-Fluoro-2,6-dimethoxy-phenyl)-3-(4-trifluoromethoxy-benzyl)-thiazolidin-4-one] | –
24 nM | 263 nM | COc1cccc(OCCO)c1C1SCC(=O)N1Cc1ccc(OC(F)(F)F)cc1 (stereo not drawn) [Example 267, 2-[2-(2-Hydroxy-ethoxy)-6-methoxy-phenyl]-3-(4-trifluoromethoxy-benzyl)-thiazolidin-4-one] | –
13 nM | 2290 nM | CCOc1ccccc1C1SCC(=O)N1Cc1cccc(OC(F)(F)F)c1 (stereo not drawn) [Example 81, 2-(2-Ethoxy-phenyl)-3-(3-trifluoromethoxy-benzyl)-thiazolidin-4-one] | –
14 nM | 278 nM | COc1ccc2cccnc2c1C1SCC(=O)N1Cc1ccc(OC(F)(F)F)cc1 (stereo not drawn) [Example 24, 2-(7-Methoxy-quinolin-8-yl)-3-(4-trifluoromethoxy-benzyl)-thiazolidin-4-one] | –
13 nM | 244 nM | COc1cccc(OC)c1C1SCC(=O)N1Cc1ccc(Oc2ccccc2)cc1 (stereo not drawn) [Example 7, 2-(2,6-Dimethoxy-phenyl)-3-(4-phenoxy-benzyl)-thiazolidin-4-one] | –
23 nM | 83 nM | COc1cccc(OC)c1C1SCC(=O)N1Cc1ccc2ccccc2c1 (stereo not drawn) [Example 8, 2-(2,6-Dimethoxy-phenyl)-3-naphthalen-2-ylmethyl-thiazolidin-4-one] | –
10 nM | 1030 nM | COc1cccc(OC)c1C1SCC(=O)N1Cc1ccc(Oc2cccnc2)cc1 (stereo not drawn) [Example 278, 2-(2,6-Dimethoxy-phenyl)-3-[4-(pyridin-3-yloxy)-benzyl]-thiazolidin-4-one] | –
